In the NIST ThermoML archive (doi:10.1016/j.jct.2018.09.010):

Assay: relative permittivity at various frequencies (dimensionless); xn = mol fraction of the nth substance listed
Details: Gas, Frequency=385 MHz, Reentrant cavity resonator

[C-]#[O+] [carbon monoxide] + O=C=O
Details | relative permittivity
255.04 K, 1972.8 kPa, x1 = 0.7493 | 1.01697
255.04 K, 3976.6 kPa, x1 = 0.7493 | 1.03607
255.05 K, 3004.5 kPa, x1 = 0.4959 | 1.03119
255.05 K, 5999.5 kPa, x1 = 0.7493 | 1.05751
255.06 K, 1479.4 kPa, x1 = 0.4959 | 1.01417
255.06 K, 1511.8 kPa, x1 = 0.4959 | 1.01451
255.06 K, 2026.5 kPa, x1 = 0.7493 | 1.01747
255.06 K, 3003.3 kPa, x1 = 0.4959 | 1.03118
255.06 K, 4001.7 kPa, x1 = 0.4959 | 1.04416
255.06 K, 5990.8 kPa, x1 = 0.7493 | 1.05742
255.06 K, 7992.1 kPa, x1 = 0.7493 | 1.08067
273.14 K, 1964 kPa, x1 = 0.7493 | 1.01551
273.14 K, 3995.6 kPa, x1 = 0.7493 | 1.03288
273.14 K, 5997.2 kPa, x1 = 0.7493 | 1.05136
273.15 K, 2016.4 kPa, x1 = 0.7493 | 1.01594
273.15 K, 4009 kPa, x1 = 0.7493 | 1.033
273.15 K, 5997.2 kPa, x1 = 0.7493 | 1.05135
273.15 K, 7991.2 kPa, x1 = 0.7493 | 1.07098
273.2 K, 1454.1 kPa, x1 = 0.4959 | 1.01273
273.2 K, 2480.8 kPa, x1 = 0.4959 | 1.02261
273.2 K, 4502 kPa, x1 = 0.4959 | 1.0448
273.2 K, 5505.6 kPa, x1 = 0.4959 | 1.05746
273.21 K, 3471.2 kPa, x1 = 0.4959 | 1.03299
293.23 K, 1980.8 kPa, x1 = 0.7493 | 1.0144
293.23 K, 3995.9 kPa, x1 = 0.7493 | 1.02993
293.23 K, 4015.8 kPa, x1 = 0.7493 | 1.0301
293.23 K, 6011.2 kPa, x1 = 0.7493 | 1.04635
293.23 K, 6015 kPa, x1 = 0.7493 | 1.04638
293.23 K, 8001.1 kPa, x1 = 0.7493 | 1.0633
293.24 K, 2023.8 kPa, x1 = 0.7493 | 1.01472
293.25 K, 2039.7 kPa, x1 = 0.4959 | 1.0167
293.25 K, 3988.8 kPa, x1 = 0.4959 | 1.03469
293.25 K, 4025.1 kPa, x1 = 0.4959 | 1.03504
293.25 K, 5986 kPa, x1 = 0.4959 | 1.05557
293.26 K, 1975.2 kPa, x1 = 0.4959 | 1.01614
293.26 K, 6541.1 kPa, x1 = 0.4959 | 1.06185
313.26 K, 1937.1 kPa, x1 = 0.4959 | 1.01462
313.26 K, 2024.1 kPa, x1 = 0.4959 | 1.0153
313.26 K, 5954.7 kPa, x1 = 0.4959 | 1.04939
313.26 K, 6218.2 kPa, x1 = 0.4959 | 1.0519
313.27 K, 4013.4 kPa, x1 = 0.4959 | 1.03178
313.28 K, 1974.2 kPa, x1 = 0.7493 | 1.01333
313.28 K, 2022.8 kPa, x1 = 0.7493 | 1.01367
313.28 K, 3992.7 kPa, x1 = 0.7493 | 1.02755
313.28 K, 5954.9 kPa, x1 = 0.7493 | 1.04192
313.28 K, 7996.5 kPa, x1 = 0.7493 | 1.05736
313.29 K, 6015.3 kPa, x1 = 0.7493 | 1.04237
